Experimental data: paper PMC5745756, “N,N-disubstituted azines attenuate LPS-mediated neuroinflammation in microglia and neuronal apoptosis via inhibiting MAPK signaling pathways” (BMC Neuroscience, 2017)

Key:
Format in all cases: cell-based, murine
iNOS = assay: Western blot of LPS-induced iNOS expression in BV-2 cells
Procedure: BV-2 cells were seeded in a 6-well plate at a density of 6 × 10^5 cells/well and exposed to LPS (100 ng/mL) in the presence or absence of compound 3 for required time. After treatment, cells were collected and lysed in cell lysis buffer (50 mM Tris–HCl, pH 8.0, 0.1% SDS, 150 mM NaCl, 1% NP-40, 0.02% sodium azide, 0.5% sodium deoxycholate, 100 µg/mL PMSF, and […]) for 24 h at 4 °C. The protein content was measured using a Bradford assay. Equal amounts of protein (30 µg) were separated using SDS-PAGE and transferred to a nitrocellulose membrane. […]
Fig. 2 Effect of compound 3 on LPS-induced iNOS and COX2 expression in BV-2 cells. […] Similarly, LPS activation was made for 24 h as chronic BV2 activation and the iNOS and COX-2 expression was measured (d). α-Tubulin was used as the loading control. […] After 24 h, the culture medium was subsequently collected to measure the quantity of PGE2 (e), IL-6 (f), and TNF-α (g) using ELISA analysis. […]

PGE2 = assay: ELISA of PGE2 in LPS-activated BV-2 culture medium; conditions: 5, 10 and 20 µM, LPS 24 h
Procedure: (§1) To measure TNF-α, IL-6, and PGE2, BV-2 cells were seeded in a 24-well plate at a density of 3 × 10^5 cells/well. The cells were treated with LPS (100 ng/mL) in the presence or absence of compound 3 for 24 h, and the media was collected and centrifuged. IL-6, TNF-α, and PGE2 produced in microglial culture supernatants […] were measured by competitive enzyme immunoassay kits (R&D systems, Minneapolis, MN, USA) in accordance with the manufacturer’s protocol.
(§2) Fig. 2 Effect of compound 3 on LPS-induced iNOS and COX2 expression in BV-2 cells. BV-2 cells were pretreated with various concentrations (5, 10, and 20 µM) of compound 3 for 30 min and activated with 100 ng/mL LPS. After 6 h, the cells were collected for analysis of iNOS and COX-2 expression using western blot analysis (a–c). Similarly, LPS activation was made for 24 h as chronic BV2 activation and the iNOS and COX-2 expression was measured (d). α-Tubulin was used as the loading control. The densitometric analysis of bands was performed as described in the methods section. After 24 h, the culture medium was subsequently collected to measure the quantity of PGE2 (e), IL-6 (f), and TNF-α (g) using ELISA analysis. […]

TNF-α = assay: ELISA of TNF-α in LPS-activated BV-2 culture medium; conditions: 10 and 20 µM, LPS 24 h
Procedure: as §1, §2

COc1cc(/C=C/C=N/N=C/C=C/c2ccc(O)c(OC)c2)ccc1O [Compound 3, 4,4′-(1E,1′E,3E,3′E)-3,3′-(hydrazine-1,2-diylidene)bis(prop-1-ene-1-yl-3-ylidene)bis(2-methoxyphenol)]
Expression of iNOS (iNOS; 5, 10 and 20 µM, 30 min pretreatment, LPS 100 ng/mL 6 h): significantly reduced | LPS induced iNOS activation, chronic (iNOS; 24 h chronic LPS activation): dramatically rescued | LPS-activated PGE2 production (PGE2): reduced | TNF-α secretion (TNF-α): significant reduction
